In the NIST ThermoML archive (doi:10.1021/je030101n):
± gives the expanded uncertainty stated by the source.

Assay: xn = mol fraction of the nth substance listed
Details: 101.3 kPa, Liquid; for viscosity: Capillary tube (Ostwald / Ubbelohde) method; for mass density: Pycnometric method

N#Cc1ccccc1 [benzonitrile] + CN(C)C=O
Details | mass density, 298.15 K [kg/m3] | mass density, 303.15 K [kg/m3] | mass density, 308.15 K [kg/m3] | mass density, 313.15 K [kg/m3] | viscosity, 298.15 K [mPa·s] | viscosity, 303.15 K [mPa·s] | viscosity, 308.15 K [mPa·s] | viscosity, 313.15 K [mPa·s]
x2 = 0 | 1000.9 ± 0.6 | 996.4 ± 0.6 | 991.9 ± 0.6 | 987.2 ± 0.6 | 1.171 ± 0.009 | 1.126 ± 0.009 | 1.068 ± 0.009 | 1.001 ± 0.008
x2 = 0.1335 | 995.4 ± 0.5 | 990.9 ± 0.5 | 986.4 ± 0.5 | 981.7 ± 0.5 | 1.17 ± 0.009 | 1.124 ± 0.009 | 1.064 ± 0.008 | 0.99 ± 0.008
x2 = 0.1981 | 992.7 ± 0.5 | 988.2 ± 0.5 | 983.7 ± 0.5 | 979 ± 0.5 | 1.169 ± 0.009 | 1.119 ± 0.008 | 1.056 ± 0.008 | 0.985 ± 0.008
x2 = 0.3191 | 987.4 ± 0.4 | 982.9 ± 0.4 | 978.4 ± 0.5 | 973.8 ± 0.5 | 1.152 ± 0.008 | 1.097 ± 0.008 | 1.033 ± 0.008 | 0.963 ± 0.007
x2 = 0.3873 | 984.3 ± 0.4 | 979.8 ± 0.4 | 975.3 ± 0.4 | 970.6 ± 0.4 | 1.134 ± 0.008 | 1.078 ± 0.008 | 1.015 ± 0.007 | 0.948 ± 0.007
x2 = 0.4907 | 979 ± 0.4 | 974.5 ± 0.4 | 970 ± 0.4 | 965.3 ± 0.4 | 1.099 ± 0.008 | 1.042 ± 0.007 | 0.98 ± 0.007 | 0.918 ± 0.007
x2 = 0.6061 | 972.2 ± 0.4 | 967.7 ± 0.4 | 963.2 ± 0.4 | 958.5 ± 0.4 | 1.049 ± 0.007 | 0.992 ± 0.007 | 0.932 ± 0.007 | 0.875 ± 0.006
x2 = 0.7176 | 965.2 ± 0.3 | 960.6 ± 0.3 | 956 ± 0.3 | 951.2 ± 0.3 | 0.992 ± 0.007 | 0.936 ± 0.006 | 0.879 ± 0.006 | 0.825 ± 0.006
x2 = 0.7997 | 959.6 ± 0.3 | 955 ± 0.3 | 950.4 ± 0.3 | 945.6 ± 0.3 | 0.943 ± 0.006 | 0.889 ± 0.006 | 0.834 ± 0.006 | 0.781 ± 0.006
x2 = 0.9209 | 950.6 ± 0.3 | 946 ± 0.3 | 941.4 ± 0.3 | 936.5 ± 0.3 | 0.862 ± 0.006 | 0.811 ± 0.006 | 0.761 ± 0.005 | 0.715 ± 0.005
